Source: patent US9404086B2, “Method for cell differentiation” (GE HEALTHCARE UK LIMITED, priority 2014, dated 2016)

How the values were obtained:
Format in all cases: cell-based, human
hESC [1] = test: Flow cytometry analysis of differentiation markers at day 4 of DE differentiation; conditions: for differentiation to DE: supplementation of Activin A, compared with Activin A and DMSO
Description: Definitive endoderm formation: hESC were passaged onto the appropriate culture flasks or plates at 0.6×10^5 cells/cm^2 and cultured for 2 days. To initiate definitive endoderm differentiation hESC were washed once with PBS and cultured in RMPI 1640 medium (Life Technologies) supplemented with 100 ng/ml of Activin A (R&D Systems) and 0.25 to 2% of DMSO (Sigma). FBS (0.2%) was added after first 24 hours and cells were cultured for four days with media changed daily.
Cells cultured in 6 well plates were washed twice in PBS and treated with 0.25% trypsin-EDTA (Life Technologies) to obtain single cell suspensions. Trypsin was inactivated after 5 min of incubation by adding medium containing 10% FBS. Cells were counted, centrifuged at 300 g for 5 min, washed twice with PBS and subsequently fixed in 2% paraformaldehyde (USB). Following 15 min incubation at room temperature cells were washed in PBS and perm/wash buffer (PWB) (BD) and subsequently resuspended at 4×10^6 cells/ml in perm/wash buffer supplemented with 0.1 mg/ml human IgG (Sigma) and 10% serum from the species of secondary antibody (Life Technologies). Cells were incubated for 30 min at 4° C. and then 50 μl aliquots (2×10^5 cells) were transferred to individual 5 ml polystyrene round-bottom FACS assay tubes. For double staining of cells with OCT4 and SOX17, cells were stained in perm/wash buffer first with mouse anti-OCT4 (Cell Signalling) and incubated for 1 h at room temperature, following by two washes with PBS and incubation in perm/wash buffer with goat anti-mouse-FITC (Molecular Probes) and goat anti-SOX17-APC (R&D Systems). Following 1 h incubation at 4° C., samples were washed twice and resuspended in 0.2% FBS in PBS in a final volume of […]. Separate staining for OCT4 and SOX17 was performed analogously. Cells were analysed on a BD FACSCalibur flow cytometer and data analysed using CellQuest software.

hESC [2] = test: Immunofluorescence analysis of differentiation markers at day 4 of DE differentiation
Description: Definitive endoderm formation: hESC were passaged onto the appropriate culture flasks or plates at 0.6×10^5 cells/cm^2 and cultured for 2 days. To initiate definitive endoderm differentiation hESC were washed once with PBS and cultured in RMPI 1640 medium (Life Technologies) supplemented with 100 ng/ml of Activin A (R&D Systems) and 0.25 to 2% of DMSO (Sigma). FBS (0.2%) was added after first 24 hours and cells were cultured for four days with media changed daily. For detection of stage-specific markers, cells were grown and differentiated in 96 well plates (uClear black plate with clear flat bottom, Greiner). Cells were rinsed twice with PBS and fixed in 4% paraformaldehyde (USB) for 15 min at room temperature and then washed twice with PBS and blocked for 30 min at RT in 1% BSA (Life Technologies) and 0.1 mg/ml human IgG (Sigma) in perm/wash buffer (BD). Cells were subsequently stained for 2 hours at RT or overnight at 4° C. with primary rabbit anti-OCT4 (Cell Signaling), mouse and anti-SOX17 (Abcam) antibodies diluted in perm/wash buffer. Cells were subsequently washed several times with perm/wash buffer and incubated at 4° C. in the dark with goat anti-mouse-FITC and chicken anti-rabbit-Cy5 (Molecular probes) diluted 1:400 in perm/wash buffer. […]

hESC [3] = test: qRT-PCR analysis of differentiation markers at day 4 of DE differentiation
Description: Definitive endoderm formation: hESC were passaged onto the appropriate culture flasks or plates at 0.6×10^5 cells/cm^2 and cultured for 2 days. To initiate definitive endoderm differentiation hESC were washed once with PBS and cultured in RMPI 1640 medium (Life Technologies) supplemented with 100 ng/ml of Activin A (R&D Systems) and 0.25 to 2% of DMSO (Sigma). FBS (0.2%) was added after first 24 hours and cells were cultured for four days with media changed daily. Isolation of total cellular RNA was performed using an illustra RNAspin Mini RNA Isolation Kit (GE Healthcare) and the concentration of RNA in each sample measured on a NanoDrop 1000 spectrophotometer. 1 μg of extracted total RNA was reverse transcribed using High Capacity cDNA Reverse Transcription Kit (Applied Biosystems). TaqMan quantitative PCR was performed using unlabelled PCR primers and FAM-based probes (Applied Biosystems by Life Technologies) in conjunction with TaqMan Universal PCR Master Mix, No AmpErase UNG (Applied Biosystems). Concentrated TaqMan PCR Master Mix (2×) was combined with water and cDNA. The final concentration of Master Mix was achieved by addition of appropriate concentrations of primers/FAM probes diluted in water. Reactions were carried out on a 7900HT Fast Real-Time PCR System (Applied Biosystems). qRT-PCR cycling conditions were: 95° C. for 10 min, and subsequently 45 cycles of 95° C. for 10 sec and 60° C. for 1 min. Each sample was run in triplicate with GAPDH as a reference gene. Analysis of results was performed in SDS Software for the 7900HT Fast Real-Time PCR System. Relative quantification was calculated against GAPDH and B-Actin housekeeping genes and standard derivations report n=3 replicates from each sample.

hESC [4] = test: Differentiation of hESC-derived DE towards hepatic like cells (AFP day 12, ALB day 28); conditions: day 28 (hepatic like cells), with increasing concentrations of DMSO during DE stage
Description: Definitive endoderm formation: hESC were passaged onto the appropriate culture flasks or plates at 0.6×10^5 cells/cm^2 and cultured for 2 days. To initiate definitive endoderm differentiation hESC were washed once with PBS and cultured in RMPI 1640 medium (Life Technologies) supplemented with 100 ng/ml of Activin A (R&D Systems) and 0.25 to 2% of DMSO (Sigma). FBS (0.2%) was added after first 24 hours and cells were cultured for four days with media changed daily. Hepatic specification: hESC-derived definitive endoderm cells were washed once with PBS and cultured in KO-DMEM medium and 2% KOSR supplemented with 1 mM L-glutamine, NEAA (all from Life Technologies), B-Mercaptoethanol (Sigma), 30 ng/ml BMP2, 10 ng/ml FGF4, 0.5% DMSO for 5 days with BMP4. […] Isolation of total cellular RNA was performed using an illustra RNAspin Mini RNA Isolation Kit (GE Healthcare) and the concentration of RNA in each sample measured on a NanoDrop 1000 spectrophotometer. […] TaqMan quantitative PCR was performed using unlabelled PCR primers and FAM-based probes (Applied Biosystems by Life Technologies) in conjunction with TaqMan Universal PCR Master Mix, No AmpErase UNG (Applied Biosystems). […] Relative quantification was calculated against GAPDH and B-Actin housekeeping genes and standard derivations report n=3 replicates from each sample.

[5] = increasing concentrations of DMSO with Activin A, day 4
[6] = 0.5% and 1% DMSO added to Activin A containing medium, day 4, relative to control cells treated with Activin A alone

Molecule | differentiation to DE (hESC [1]) | OCT4 expression (hESC [2]; increasing concentrations of DMSO from 0% to 2% with Activin A) | DMSO concentration at which SOX 17 staining was maximum (hESC [2]; with Activin A) | expression of pluripotency genes (hESC [3]; 0.5% to 0.6% DMSO added to Activin A-based medium during definitive endoderm derivation) | DE differentiation compared with established prior art method (Hay et al) (hESC [3]; DMSO method day 4 (KCGE D4) versus Hay D5) | CXCR4 expression (hESC [3]; [5]) | GATA4 expression (hESC [3]; [5]) | OCT4 expression (hESC [3]; [5]) | SOX17 expression (hESC [3]; [5]) | OCT4 expressing cells (hESC [1]; [6]) | SOX17 expressing cells (hESC [1]; [6]) | OCT4 expression (hESC [1]; increasing concentrations of DMSO with Activin A, day 4, flow cytometry confirmation) | ALB expression (hESC [4])
FGF2: growth factor reported to aid in DE differentiation, used in conjunction with Activin A | inferior |  |  |  |  |  |  |  |  |  |  |  | 
C[S+](C)[O-] [DMSO, dimethyl sulfoxide] |  | down regulation | 0.6% | rapid down regulation | significant improvement | up regulation | up regulation | significant dose dependent decrease | up regulation | decrease | increase | down regulation | increased
Wnt3a: growth factor reported to aid in DE differentiation, used in conjunction with Activin A (protein, UniProt P56704 19-352, looked up) Protein Wnt-3a: SYPIWWSLAVGPQYSSLGSQPILCASIPGLVPKQLRFCRNYVEIMPSVAEGIKIGIQECQHQFRGRRWNCTTVHDSLAIFGPVLDKATRESAFVHAIASAGVAFAVTRSCAEGTAAICGCSSRHQGSPGKGWKWGGCSEDIEFGGMVSREFADARENRPDARSAMNRHNNEAGRQAIASHMHLKCKCHGLSGSCEVKTCWWSQPDFRAIGDFLKDKYDSASEMVVEKHRESRGWVETLRPRYTYFKVPTERDLVYYEASPNFCEPNPETGSFGTRDRTCNVSSHGIDGCDLLCCGRGHNARAERRREKCRCVFHWCCYVSCQECTRVYDVHTCK | inferior |  |  |  |  |  |  |  |  |  |  |  | 
